Experimental data reported in patent US4704462A, “Substituted 2,3,3a,6-tetrahydro-6-oxobenzofuran derivative useful as PAF antagonist” (Merck & Co., Inc., priority 1985, dated 1987).

Key:
[1] = molecular target: T1, PAF Receptor (Oryctolagus cuniculus, UniProt G1TEI7); experiment: % Inhibition of PAF Receptor (published bioassay, Table I); assay type: binding
T1 construct: from tissue
Source text: See. T. Y. Shen et al., Proc. Nat. Acad. Sci., U.S.A., 82, 672 (1985); and S. B. Hwang et al., Biochem., 22, 4756 (1983).
% Inhibition of PAF Receptor by the Compounds of […]

[2] = system: man; conditions: in man, 0.1 μg per site; cited from earlier work

T1 sequence (G1TEI7 1-342): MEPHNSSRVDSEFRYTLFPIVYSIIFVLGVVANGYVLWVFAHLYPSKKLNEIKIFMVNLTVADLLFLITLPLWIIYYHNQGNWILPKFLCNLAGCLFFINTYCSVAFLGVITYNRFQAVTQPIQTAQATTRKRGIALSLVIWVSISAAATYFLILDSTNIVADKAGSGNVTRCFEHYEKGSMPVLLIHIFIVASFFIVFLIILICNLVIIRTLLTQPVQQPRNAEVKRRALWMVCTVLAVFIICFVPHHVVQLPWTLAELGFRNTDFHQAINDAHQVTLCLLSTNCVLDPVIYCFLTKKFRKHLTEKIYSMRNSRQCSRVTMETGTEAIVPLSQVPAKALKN

| Molecule | inhibition at 1 µM [1] [%] | inhibition at 5 µM [1] [%] | inhibition at 0.03 µM ([1]; Dose 0.03 μM) [%] | inhibition at 0.1 µM ([1]; Dose 0.1 μM) [%] | inhibition at 0.3 µM [1] [%] | inflammatory response to intradermal PAF [2] |
| --- | --- | --- | --- | --- | --- | --- |
| C=CCC1=C2OC(c3ccc(OC)c(OC)c3)C(C)C2(OC)C=CC1=O (centres unmarked) | 26 | 57 | – | – | – | – |
| 1-O-hexadecyl/octadecyl-2-O-acetyl-sn-glycero-3-phosphorylcholine [PAF] | – | – | – | – | – | biphasic inflammatory response |
| CCCC1=C[C@]2(OC)C(=CC1=O)O[C@H](c1ccc(OC)c(OC)c1)[C@@H]2C (single isomer, unassigned) | 31 | 61 | – | – | – | – |

Now from value to molecule, other results behind:

| inhibition at 1 µM [1] [%] | inhibition at 5 µM [1] [%] | inhibition at 0.03 µM ([1]; Dose 0.03 μM) [%] | inhibition at 0.1 µM ([1]; Dose 0.1 μM) [%] | inhibition at 0.3 µM [1] [%] | Molecule | inflammatory response to intradermal PAF [2] |
| --- | --- | --- | --- | --- | --- | --- |
| 45 | 73 | – | – | – | C=CCC1=C[C@]2(OCC)C(=CC1=O)O[C@H](c1ccc(OC)c(OC)c1)[C@@H]2C [(2S,3S,3aR)-5-allyl-2-(3,4-dimethoxyphenyl)-3a-ethoxy-3-methyl-2,3,3a,6-tetrahydro-6-oxo-benzofuran] | – |
| 83 to 89 | 90 to 95 | 30 to 33 | 58 to 59 | 73 to 76 | CCCC1=C[C@@]2(OC)C(=CC1=O)O[C@H](c1ccc(OC)c(OC)c1)[C@@H]2C [(2S,3S,3aS)-2-(3,4-dimethoxyphenyl)-3a-methoxy-3-methyl-5-n-propyl-2,3,3a,6-tetrahydro-6-oxo-benzofuran] | – |
| 68 | – | – | – | 42 | C=CCC1=C[C@@]2(OCC)C(=CC1=O)O[C@H](c1ccc(OC)c(OC)c1)[C@@H]2C [(2S,3S,3aS)-5-allyl-2-(3,4-dimethoxyphenyl)-3a-ethoxy-3-methyl-2,3,3a,6-tetrahydro-6-oxo-benzofuran] | – |
